Laboratory results from US20240327334A1, “Covalent Inhibitors As Antiviral Agents” (Enanta Pharmaceuticals, Inc., priority 2022, published 2024).

Target: SARS-CoV-2 Papain-like (PLpro) protease (Severe acute respiratory syndrome coronavirus 2, UniProt P0DTD1)
Experiment: SARS-CoV-2 Papain-like (PLpro) protease biochemical enzyme inhibition assay (ubiquitin-fluorophore substrate, Ub-R110)
Conditions: Ub-R110 substrate; run in duplicate; read-out: PLpro IC50

`CC1(O)CN(c2cc(C3(NC(=O)c4ccccc4CNC(=O)C(=O)NCC#N)CC3)c3ccccc3c2)C1` [Example 319] and `N#CCNC(=O)C(=O)NCc1ccccc1C(=O)NC1(c2cc(-c3cccs3)cc3ccccc23)CC1` [Example 347] cannot be ordered by IC50: under 100 nM for the first, under 100 nM for the second.

`N#CCNC(=O)C(=O)NCc1ccccc1C(=O)NC1(c2cc(-c3cnn(C4CC4)c3)cc(C3CC3)c2)CC1` [Example 133] and `N#CCNC(=O)C(=O)NCc1ccccc1C(=O)NC1(c2cc(F)c(F)c(-c3cnn(C4CC4)c3)c2)CC1` [Example 240] cannot be ordered by IC50: under 100 nM for the first, under 100 nM for the second.

First: C[C@@H](C#Cc1ncccc1CC#N)NC(=O)C(=O)NCc1ccccc1C(=O)NC1(c2ccc3nn(C)cc3c2)CC1 [Example 209]
Second: C[C@@H](C#Cc1ncccc1OCC(F)F)NC(=O)C(=O)NCc1ccccc1C(=O)NC1(c2ccc3nn(C)cc3c2)CC1 [Example 212]
The IC50 of the first is lower: under 100 nM for the first, 100 to 1000 nM for the second. The first is the more potent here.

`COC(=O)/C=C/CNC(=O)C(=O)NCc1ccccc1C(=O)N[C@H](C)c1cc(-c2cccs2)cc(C(F)(F)F)c1` [Example 461] and `COC(=O)/C=C/CNC(=O)C(=O)NCc1ccccc1C(=O)N[C@H](C)c1cc(-c2ccoc2)cc(C(F)(F)F)c1` [Example 465] cannot be ordered by IC50: under 100 nM for the first, under 100 nM for the second.

`N#CCNC(=O)C(=O)NCc1ccccc1C(=O)NC1(c2cc(F)c(F)c(-c3cccs3)c2)CC1` [Example 239] and `O=C(NCC#Cc1nccs1)C(=O)NCc1ccccc1C(=O)NC1(c2cc(Cl)cc(-c3ccccc3F)c2)CC1` [Example 442] cannot be ordered by IC50: under 100 nM for the first, under 100 nM for the second.

`COc1cc(C#N)ccc1C#CCNC(=O)C(=O)NCc1ccccc1C(=O)NC1(c2ccc3ccccc3c2)CC1` [Example 88] and `N#Cc1ccc(C#CCNC(=O)C(=O)NCc2ccccc2C(=O)NC2(c3ccc4ccccc4c3)CC2)c(F)c1` [Example 86] cannot be ordered by IC50: under 100 nM for the first, under 100 nM for the second.

`O=C(NCC#Cc1nccs1)C(=O)NCc1ccccc1C(=O)NC1(c2cc(-c3ccn(C4CC4)n3)cc(F)c2F)CC1` [Example 305] and `O=C(NCC#Cc1nccs1)C(=O)NCc1ccccc1C(=O)NC1(c2cc(F)cc(-c3cnn(C4CC4)c3)c2F)CC1` [Example 313] cannot be ordered by IC50: under 100 nM for the first, under 100 nM for the second.

`COc1cc(C2(NC(=O)c3ccccc3CNC(=O)C(=O)NCC#N)CC2)c2cccnc2c1` [Example 411] and `N#CCNC(=O)C(=O)NCc1ccccc1C(=O)NC1(c2cccc3c(Br)cccc23)CC1` [Example 310] cannot be ordered by IC50: under 100 nM for the first, under 100 nM for the second.

`CS(=O)(=O)/C=C/CNC(=O)C(=O)NCc1ccccc1C(=O)NC1(c2cccc3ccccc23)CC1` [Example 155] and `N#CN1CC[C@@H](CNC(=O)C(=O)NCc2ccccc2C(=O)NC2(c3cccc4ccccc34)CC2)C1` [Example 509] cannot be ordered by IC50: under 100 nM for the first, under 100 nM for the second.

`N#CN1CC(C(=O)NCc2ccccc2C(=O)NC2(c3cccc4ccccc34)CC2)C1` [Example 114] and `N#CCNC(=O)C(=O)NCc1ccc(OCCO)cc1C(=O)NC1(c2cccc3ccccc23)CC1` [Example 320] cannot be ordered by IC50: under 100 nM for the first, under 100 nM for the second.

`COc1cc(C2(NC(=O)c3ccccc3CNC(=O)C(=O)N[C@@H](C)C#Cc3ccc(S(C)(=O)=O)cc3F)CC2)cc2cn(C3CC3)nc12` [Example 149] and `Cn1cnc(C#CCNC(=O)C(=O)NCc2ccccc2C(=O)NC2(c3ccc4ccccc4c3)CC2)n1` [Example 398] cannot be ordered by IC50: under 100 nM for the first, under 100 nM for the second.

First: C#CCNC(=O)C(=O)NCc1ccccc1C(=O)NC1(c2cc(Cl)cc(-c3cncs3)c2)CC1 [Example 447]
Second: Cc1n[nH]c(C)c1-c1cc(C(F)(F)F)cc(C2(NC(=O)c3ccccc3CNC(=O)C(=O)NCC#N)CC2)c1 [Example 476]
The IC50 of the first is lower: under 100 nM for the first, 100 to 1000 nM for the second. The first is the more potent here.

Test system: SARS-CoV-2 replicon
Experiment: microbe, parasite or virus in culture
Format: cell-based
Conditions: Severe acute respiratory syndrome coronavirus 2, Huh-7

First: CC1(O)CN(c2cc(C3(NC(=O)c4ccccc4CNC(=O)C(=O)NCC#N)CC3)c3ccccc3c2)C1 [Example 319]
Second: N#CCNC(=O)C(=O)NCc1ccccc1C(=O)NC1(c2cc(-c3cccs3)cc3ccccc23)CC1 [Example 347]
The EC50 of the first is higher: 1000 to 10000 nM for the first, under 1000 nM for the second. The second is the more potent here.

Compared with `N#CCNC(=O)C(=O)NCc1ccccc1C(=O)NC1(c2cc(-c3cnn(C4CC4)c3)cc(C3CC3)c2)CC1` [Example 133], `N#CCNC(=O)C(=O)NCc1ccccc1C(=O)NC1(c2cc(F)c(F)c(-c3cnn(C4CC4)c3)c2)CC1` [Example 240] is higher in EC50: 1000 to 10000 nM for the first, over 10000 nM for the second.

First: C[C@@H](C#Cc1ncccc1CC#N)NC(=O)C(=O)NCc1ccccc1C(=O)NC1(c2ccc3nn(C)cc3c2)CC1 [Example 209]
Second: C[C@@H](C#Cc1ncccc1OCC(F)F)NC(=O)C(=O)NCc1ccccc1C(=O)NC1(c2ccc3nn(C)cc3c2)CC1 [Example 212]
The EC50 of the first is lower: under 1000 nM for the first, 1000 to 10000 nM for the second.

`COC(=O)/C=C/CNC(=O)C(=O)NCc1ccccc1C(=O)N[C@H](C)c1cc(-c2cccs2)cc(C(F)(F)F)c1` [Example 461] and `COC(=O)/C=C/CNC(=O)C(=O)NCc1ccccc1C(=O)N[C@H](C)c1cc(-c2ccoc2)cc(C(F)(F)F)c1` [Example 465] cannot be ordered by EC50: under 1000 nM for the first, under 1000 nM for the second.

First: N#CCNC(=O)C(=O)NCc1ccccc1C(=O)NC1(c2cc(F)c(F)c(-c3cccs3)c2)CC1 [Example 239]
Second: O=C(NCC#Cc1nccs1)C(=O)NCc1ccccc1C(=O)NC1(c2cc(Cl)cc(-c3ccccc3F)c2)CC1 [Example 442]
The EC50 of the first is higher: over 10000 nM for the first, under 1000 nM for the second. The second is the more potent here.

`COc1cc(C#N)ccc1C#CCNC(=O)C(=O)NCc1ccccc1C(=O)NC1(c2ccc3ccccc3c2)CC1` [Example 88] and `N#Cc1ccc(C#CCNC(=O)C(=O)NCc2ccccc2C(=O)NC2(c3ccc4ccccc4c3)CC2)c(F)c1` [Example 86] cannot be ordered by EC50: under 1000 nM for the first, under 1000 nM for the second.

`O=C(NCC#Cc1nccs1)C(=O)NCc1ccccc1C(=O)NC1(c2cc(-c3ccn(C4CC4)n3)cc(F)c2F)CC1` [Example 305] and `O=C(NCC#Cc1nccs1)C(=O)NCc1ccccc1C(=O)NC1(c2cc(F)cc(-c3cnn(C4CC4)c3)c2F)CC1` [Example 313] cannot be ordered by EC50: under 1000 nM for the first, under 1000 nM for the second.

First: COc1cc(C2(NC(=O)c3ccccc3CNC(=O)C(=O)NCC#N)CC2)c2cccnc2c1 [Example 411]
Second: N#CCNC(=O)C(=O)NCc1ccccc1C(=O)NC1(c2cccc3c(Br)cccc23)CC1 [Example 310]
The EC50 of the first is higher: 1000 to 10000 nM for the first, under 1000 nM for the second. The second is the more potent here.

`CS(=O)(=O)/C=C/CNC(=O)C(=O)NCc1ccccc1C(=O)NC1(c2cccc3ccccc23)CC1` [Example 155] and `N#CN1CC[C@@H](CNC(=O)C(=O)NCc2ccccc2C(=O)NC2(c3cccc4ccccc34)CC2)C1` [Example 509] cannot be ordered by EC50: under 1000 nM for the first, under 1000 nM for the second.

`N#CN1CC(C(=O)NCc2ccccc2C(=O)NC2(c3cccc4ccccc34)CC2)C1` [Example 114] and `N#CCNC(=O)C(=O)NCc1ccc(OCCO)cc1C(=O)NC1(c2cccc3ccccc23)CC1` [Example 320] cannot be ordered by EC50: under 1000 nM for the first, under 1000 nM for the second.

`COc1cc(C2(NC(=O)c3ccccc3CNC(=O)C(=O)N[C@@H](C)C#Cc3ccc(S(C)(=O)=O)cc3F)CC2)cc2cn(C3CC3)nc12` [Example 149] and `Cn1cnc(C#CCNC(=O)C(=O)NCc2ccccc2C(=O)NC2(c3ccc4ccccc4c3)CC2)n1` [Example 398] cannot be ordered by EC50: under 1000 nM for the first, under 1000 nM for the second.

First: C#CCNC(=O)C(=O)NCc1ccccc1C(=O)NC1(c2cc(Cl)cc(-c3cncs3)c2)CC1 [Example 447]
Second: Cc1n[nH]c(C)c1-c1cc(C(F)(F)F)cc(C2(NC(=O)c3ccccc3CNC(=O)C(=O)NCC#N)CC2)c1 [Example 476]
The EC50 of the first is lower: under 1000 nM for the first, 1000 to 10000 nM for the second.
